The values below come from publication PMC6332299, “Nonprenylated Xanthones from Gentiana lutea, Frasera caroliniensis, and Centaurium erythraea as Novel Inhibitors of Vascular Smooth Muscle Cell Proliferation” (Molecules, 2015).

Common to all, as to type: cell-based
In data set [1] the test system is rat aortic VSMC. Briefly: BrdU incorporation assay (DNA synthesis) in PDGF-stimulated VSMC. Conditions: PDGF-BB 20 ng/mL, BrdU added after 2 h, read after 22 h, read-out: Inhibition of VSMC Proliferation, BrdU Assay, IC50. The method, then:
In this assay, the DNA synthesis in dividing VSMC is measured by quantification of BrdU incorporation into newly synthesized DNA.
(§1) Rat aortic VSMC were acquired from Lonza and grown in Dulbecco’s modified essential medium (DMEM)–F12 (1:1) supplemented with 20% fetal calf serum (FCS) and gentamycin. For all experiments, cells were seeded in 96-well plates (5 × 10^3 cells/well) and incubated for 24 h. Subsequently, cells were serum-starved for another 24 h to make them quiescent.
Quiescent VSMC were pre-treated with test compounds or vehicle (0.1% DMSO) for 30 min and then stimulated with PDGF-BB (20 ng/mL) for 2 h. Subsequently, BrdU was added to estimate de novo DNA synthesis in VSMC [29, 30]. After 22 h, the BrdU incorporation was determined according to the instructions of the manufacturer (Roche Diagnostics, Vienna, Austria).

Data set [2] relates to rat aortic VSMC. The data set can be described thus: Assessment of cytotoxicity by LDH release. Conditions: concentration range up to 30 µM; PDGF-BB 20 ng/mL, 24 h. The method, then: Loss of VSMC membrane integrity as a sign for cell death was quantified by measuring the release of the soluble cytosolic protein LDH.
as §1
Quiescent VSMC were pre-treated with test compounds, positive control (digitonin 100 µg/mL, corresponding to 81 µM), or vehicle (0.1% DMSO) for 30 min and then stimulated with PDGF-BB (20 ng/mL) for 24 h. Loss of cell membrane integrity as an indicator for cell death was quantified by measuring the release of LDH [31, 32]. Therefore, the LDH activity of the cell supernatant was determined. To estimate total LDH, identically treated samples were incubated in the presence of 1% Triton X-100 for 45 min. […] The enzyme reaction was stopped by oxymate (1.78 mg/mL) and the absorbance was read at 490 nm. The percentage of extracellular LDH enzyme activity was calculated to estimate potential effects of the samples on cell viability.

Data set [3] relates to rat aortic VSMC. Briefly: Resazurin conversion assay of PDGF-induced VSMC proliferation. Conditions: for IC50 / activity at 30 µM: PDGF-BB 20 ng/mL; for IC50: concentrations 1, 3, 10, 30 µM, read-out: Inhibition of VSMC Proliferation, Resazurin Conversion Assay, IC50; for activity at 30 µM: 30 µM compound, residual proliferation relative to PDGF + 0.1% DMSO control = 1.00, means ± SD, n = 3, read-out: Inhibition of VSMC Proliferation, Resazurin Conversion Assay, at 30 µM (Relative to Solvent vehicle = 1.00, RU); for Anti-proliferative activity in rat aortic VSMC (in words): summary rating of the 14 xanthones. The method, then:
With the aim to identify novel natural product inhibitors of VSMC proliferation, we tested several natural products (not shown) from our in-house compound collection on their ability to inhibit proliferation of rat aortic VSMC induced by the platelet-derived growth factor (PDGF), which is a mitogen strongly associated with aberrant proliferation in restenosis and leads to excessive proliferation of VSMC. After stimulation of the VSMC for 48 h with PDGF, the total number of metabolically active cells was measured by resazurin conversion. In this way, the xanthone gentisin (1,7-dihydroxy-3-methoxyxanthone (1)), previously isolated from the root material of G. lutea, a well-known medicinal bitter plant from the Gentianaceae family, was identified as a novel inhibitor of VSMC proliferation. […] Although an anti-proliferative effect of a prenylated xanthone has been described earlier, it represents a novel activity for simple, nonprenylated xanthones.
as §1
Quiescent VSMC were pre-treated with the studied test compounds, G. lutea root extract, or vehicle (0.1% DMSO) for 30 min and then stimulated with PDGF-BB (20 ng/mL) for 48 h. The number of metabolically active VSMC was measured by resazurin conversion. Therefore, after washing the cells with phosphate-buffered saline (PBS), they were incubated in serum-free medium containing resazurin (10 µg/mL) for 2 h. Measurement of total metabolic activity was performed by monitoring the increase in fluorescence at 590 nm using an excitation wavelength of 535 nm in a 96-well plate reader (Tecan GENios Pro, Grödig, Austria). The assay was validated using the VSMC proliferation inhibitor taxol (IC50 = 0.1 µM [21]).

[4] abbreviates: Rattus norvegicus, VSMC, 48 h, 48 h.

Structures are written as SMILES.

Consider `COc1cc(O)c2c(=O)c3cc(O)ccc3oc2c1` [Compound 1, 1,7-dihydroxy-3-methoxyxanthone], for which the IC50 was determined as 5.74 µM in data set [1], 7.84 µM in data set [3] (48 h) and 7.8 µM in data set [3] (setting [4]). The “Cytotoxicity (LDH release in the culture medium)” value (shortened to “Cytotoxicity”) in data set [2] is given as “not cytotoxic”. Besides, the “Inhibition of PDGF-induced VSMC proliferation at 30 µM (in words)” value in data set [3] (30 µM, 48 h, resazurin conversion) is on record as “completely inhibited PDGF-induced proliferation to the basal level”. In data set [3] (Rattus norvegicus, VSMC, 48 h), the activity at 30 µM stood at 33.5 ± 17.5%. Besides, the “Anti-proliferative activity in rat aortic VSMC (in words)” value (“Anti-proliferative activity” for short) in data set [3] is listed as “most potent compound”.

With `COc1ccc2oc3cc(O)cc(O)c3c(=O)c2c1` [Compound 2, 1,3-dihydroxy-7-methoxyxanthone], the IC50 in data set [3] (setting [4]) amounted to 27 µM. Also, the activity at 30 µM in data set [3] (Rattus norvegicus, VSMC, 48 h) was 59.3 ± 8.4%. The “Anti-proliferative activity” value in data set [3] is reported as “moderately active”.

As for `COc1cc2oc3c(OC)cccc3c(=O)c2c(O)c1OC` [Compound 3, 1-hydroxy-2,3,5-trimethoxyxanthone], the activity at 30 µM in data set [3] (Rattus norvegicus, VSMC, 48 h) is 83.2 ± 10.4%. In data set [3], the “Anti-proliferative activity” value was “weakly active or inactive”.

On to `COc1c(OC)c(O)c2c(=O)c3cccc(OC)c3oc2c1OC` [Compound 4, 1-hydroxy-2,3,4,5-tetramethoxyxanthone], for which the figures for the IC50 in data set [1] and in data set [3] (setting [4]) were 24.5 µM and 11.2 µM, respectively. The “Cytotoxicity” value in data set [2] is recorded as “not cytotoxic”. Also, the activity at 30 µM in data set [3] (Rattus norvegicus, VSMC, 48 h) was determined as 21.6 ± 5.8%. Besides, the “Anti-proliferative activity” value in data set [3] was “potent inhibitory activity”.

Consider `COc1ccc2oc3c(OC)c(OC)c(OC)c(O)c3c(=O)c2c1` [Compound 5, 1-hydroxy-2,3,4,7-tetramethoxyxanthone], for which the activity at 30 µM in data set [3] (Rattus norvegicus, VSMC, 48 h) turned out to be 75.4 ± 1.4%. Further, in data set [3], the “Anti-proliferative activity” value is “weakly active or inactive”.

For `COc1cc(O)c2c(=O)c3c(O)ccc(OC)c3oc2c1` [Compound 6, 1,8-dihydroxy-3,5-dimethoxyxanthone], the IC50 in data set [1] was determined as 7.37 µM; in data set [3] (setting [4]), 12.5 µM. Moreover, the “Cytotoxicity” value in data set [2] is reported as “not cytotoxic”. Moreover, the activity at 30 µM in data set [3] (Rattus norvegicus, VSMC, 48 h) worked out at 51.4 ± 6.7%. Moreover, the “Anti-proliferative activity” value in data set [3] is listed as “potent inhibitory activity”.

Turning to `COc1cc(O)c2c(=O)c3c(O)c(OC)ccc3oc2c1` [Compound 7, 1,8-dihydroxy-3,7-dimethoxyxanthone], the IC50 in data set [1] is 7.53 µM; in data set [3] (setting [4]), 10.2 µM. For the same compound, the “Cytotoxicity” value in data set [2] is “not cytotoxic”. The activity at 30 µM in data set [3] (Rattus norvegicus, VSMC, 48 h) stood at 0.2 ± 1.4%. Besides, in data set [3], the “Anti-proliferative activity” value is “potent inhibitory activity”.

As for `COc1cc(O)c2c(=O)c3cccc(O)c3oc2c1` [Compound 8, 1,5-dihydroxy-3-methoxyxanthone], in data set [3] (setting [4]), the IC50 is 29.5 µM. The activity at 30 µM in data set [3] (Rattus norvegicus, VSMC, 48 h) came to 71.3 ± 6.1%. Further, the “Anti-proliferative activity” value in data set [3] is on record as “moderately active”.

As for `COc1cc(O)c2c(=O)c3c(O)ccc(O)c3oc2c1` [Compound 9, 1,5,8-trihydroxy-3-methoxyxanthone], the activity at 30 µM in data set [3] (Rattus norvegicus, VSMC, 48 h) is 78.3 ± 3.1%.

On to `COc1cc(O)c2c(=O)c3ccc(O)c(OC)c3oc2c1` [Compound 10, 1,6-dihydroxy-3,5-dimethoxyxanthone], for which the activity at 30 µM in data set [3] (Rattus norvegicus, VSMC, 48 h) worked out at 98.7 ± 2.5%.

In the case of `COc1c(O)cc2oc3c(OC)c(O)ccc3c(=O)c2c1O` [Compound 11, 1,3,6-trihydroxy-2,5-dimethoxyxanthone], in data set [3] (Rattus norvegicus, VSMC, 48 h), the activity at 30 µM was 94.2 ± 4.2%.

Consider `COc1cc(O)c2c(=O)c3c(OC)c(OC)c(O)c(OC)c3oc2c1` [Compound 12, 1,6-dihydroxy-3,5,7,8-tetramethoxyxanthone], for which the activity at 30 µM in data set [3] (Rattus norvegicus, VSMC, 48 h) came out at 86.2 ± 6.8%.

Turning to `COc1cc(O)c2c(=O)c3c(O)c(OC)c(O)c(OC)c3oc2c1` [Compound 13, 1,6,8-trihydroxy-3,5,7-trimethoxyxanthone], in data set [3] (Rattus norvegicus, VSMC, 48 h), the activity at 30 µM stood at 84.6 ± 9.6%.

As for `COc1c(O)cc2oc3c(O)cccc3c(=O)c2c1O` [Compound 14, 1,3,5-trihydroxy-2-methoxyxanthone], the activity at 30 µM in data set [3] (Rattus norvegicus, VSMC, 48 h) stood at 86.2 ± 10.4%.
